Key:
[1] = test system: PRDM1 (BLIMP1) in GCB lines; assay: PRDM1 (BLIMP1) expression by qPCR or western blot; type: cell-based; settings: all GCB lines; 7 days with 1 μM TAZ vs DMSO
Protocol: (§1) FIG. 4. Cells were treated for 7 days with 1 μM TAZ or DMSO.

PRDM1 (BLIMP1) in TMD8 = assay: PRDM1 (BLIMP1) expression by qPCR or western blot; type: cell-based; settings: ABC cell line TMD8; 7 days with 1 μM TAZ vs DMSO
Protocol: as §1

Cells = assay: Apoptosis, single agents or combination, 10 days (FIG. 6B); type: cell-based
Protocol: (§2) FIG. 6. A) Cells were treated for 7 days with single agents or in combination. […] This effect is not seen in the ABC cell line, TMD8. B) Cells were treated for 10 days with single agents (100 ng/mL CD40L) or in combination.

DLBCL cell lines = assay: RNAseq GSEA for plasma and memory cell gene sets; type: cell-based; settings: 1 μM TAZ for 4 days; KARPAS-422, SU-DHL-6, Farage, SU-DHL-5, TMD8, Toledo
Protocol: FIG. 3. […] RNAseq data from KARPAS-422 (EZH2 mutant GCB), SU-DHL-6 (EZH2 mutant GCB) Farage (EZH2 wt GCB), SU-DHL-5 (EZH2 wt GCB), TMD8 (EZH2 wt ABC) and Toledo (EZH2 wt ABC) treated with 1 μM TAZ for 4 days was analyzed using GSEA (Broad Institute) for the presence of plasma and memory cell gene sets.

[2] = test system: SU-DHL-5 cell line xenograft; assay: Cell line xenograft model, tumor growth; type: in vivo; settings: SU-DHL-5 xenograft model
Source text: (§3) FIG. 1. A) 14 evaluable NHL patients treated (V. Ribrag ASH 2015): 13 WT+1 mutant by cobas® EZH2 Mutation Test (in development, Roche Molecular Systems, Inc.)*Cheson Criteria. B) EZH2 mutant cell lines are more sensitive to TAZ in vitro. […] Cell of origin of cell lines determined by RNAseq analysis (Scott et al. Blood 2014).

[3] = test system: OCI-LY19 cell line xenograft; assay: Cell line xenograft model, tumor growth; type: in vivo
Source text: as §3

IκBα in SU-DHL-5 cells = assay: IκBα degradation in response to CD40L (FIG. 7B); type: cell-based; settings: 4-day treatment, CD40L 500 ng/mL
Oral bioavailability = settings: in vivo
B-cell lymphomas = settings: phase I; patients with B-cell lymphomas; cited from earlier work
SU-DHL5 = assay: Combination study with tazemetostat (synergy by IC50 shifts or Calcusyn); type: cell-based; settings: SU-DHL-5 (EZH2 wt)
Protocol: (§4) Synergy was assessed by IC50 shifts or Calcusyn. [table]

KARPAS-422 = assay: as above; type: cell-based; settings: KARPAS-422 (EZH2 mutant)
Protocol: as §4

TMD8 = assay: as above; type: cell-based; settings: TMD8 (ABC)
Protocol: as §4

[4] = test system: H3K27 trimethylation in KARPAS-422; assay: H3K27 trimethylation inhibition (FIG. 6C); type: cell-based; settings: KARPAS-422, mutant EZH2 cell line
Protocol: as §2

[5] = test system: PRDM1 in SU-DHL-5 (wt EZH2); assay: PRDM1 expression after co-treatment with TAZ and CD40L (FIG. 7A); type: cell-based; settings: 14-day co-treatment
GCB lines = assay: Combination of CD40L with TAZ (FIG. 5); type: cell-based

Row | Molecule | PRDM1 (BLIMP1) expression [1] | PRDM1 (BLIMP1) expression (PRDM1 (BLIMP1) in TMD8) | apoptosis, single agent compared to DMSO (Cells) | plasma cell and memory cell gene sets (RNAseq, GSEA) (DLBCL cell lines) | tumor growth in response to TAZ treatment [2] | tumor growth in response to TAZ treatment [3] | IκBα degradation in response to CD40L (IκBα in SU-DHL-5 cells) | oral bioavailability (Oral bioavailability) | clinical response (B-cell lymphomas) | Combination effect with TAZ (FIG. 5) (SU-DHL5) | Combination effect with TAZ (FIG. 5) (KARPAS-422) | Combination effect with TAZ (FIG. 5) (TMD8) | apoptosis, combination with TAZ compared to TAZ single agent (Cells; 100 ng/mL CD40L) | effect on TAZ inhibition of H3K27 trimethylation [4] | PRDM1 expression, co-treatment with TAZ [5] | Combination effect with TAZ (FIG. 5) (GCB lines)
1 | CCN(c1cc(-c2ccc(CN3CCOCC3)cc2)cc(C(=O)NCc2c(C)cc(C)[nH]c2=O)c1C)C1CCOCC1 [tazemetostat] | increase | slight decrease | significant increase of apoptosis | induces a gene set that is heavily enriched for plasma cell and memory cell genes | tumor growth inhibition | tumor growth inhibition | does not affect | orally bioavailable | objective clinical responses |  |  |  |  |  |  | 
2 | COc1cc(Nc2ncc(F)c(Nc3ccc4c(n3)NC(=O)C(C)(C)O4)n2)cc(OC)c1OC [Tamatinib] |  |  |  |  |  |  |  |  |  | Synergy | Synergy | Synergy |  |  |  | 
3 | CD40L: recombinant CD40L, a B-cell co-stimulatory molecule (protein, UniProt P29965 113-261, looked up) CD40 ligand, soluble form: MQKGDQNPQIAAHVISEASSKTTSVLQWAEKGYYTMSNNLVTLENGKQLTVKRQGLYYIYAQVTFCSNREASSQAPFIASLCLKSPGRFERILLRAANTHSSAKPCGQQSIHLGGVFELQPGASVFVNVTDPSQVSHGTGFTSFGLLKL |  |  |  |  |  |  |  |  |  |  |  | slight synergy | significant decrease of apoptosis | does not affect | up-regulation of PRDM1 | antagonism

Source: patent publication US11147819B2, “EZH2 inhibitors for treating cancer” (Epizyme, Inc., priority 2016, dated 2021)
